From PubChem BioAssay AID1996 come the findings set out here.

Converted amounts (≈) assume the structure as drawn.

The conditions of the data set: buffer; pH 7.4; 200.0 µM.
On to `CC(CCc1ccccc1)NC(=O)CN(C)Cc1ccc(F)cc1` (centres undefined), for which the kinetic solubility (commonly the concentration staying in solution when a stock, usually in DMSO, is diluted into the medium) was found to be 34.4 µg/mL (≈ 105 µM).
The figure for `O=C(/C=C/c1ccccc1)OCC(=O)c1c[nH]c2ccccc12` is 3.9 µg/mL (≈ 12.8 µM); for `O=C(c1ccccc1F)N1CCCC(C(=O)N2CCc3ccccc3C2)C1` (centres undefined) it is 51.3 µg/mL (≈ 140 µM).
The figure for `O=C(/C=C(\O)c1ccccc1)C(=O)NNC(=O)c1ccccc1` is greater than 46.5 µg/mL; for `Nc1ccc(C(=O)NCCCSc2ccccc2)cc1[N+](=O)[O-]` it is 1.6 µg/mL (≈ 4.83 µM); for `O=C(c1ccco1)N1CCC(c2nc3ccccc3[nH]2)CC1` it is greater than 44.3 µg/mL.
The figure for `CN(C)Cc1cccc([N+](=O)[O-])c1O` is greater than 29.4 µg/mL; for `CC1(C)Cc2ccccc2C(/C(C#N)=N/O)=N1` it is greater than 34.1 µg/mL; for `O=[N+]([O-])c1ccc(NCc2ccncc2)cc1` it is greater than 34.4 µg/mL.
For `CCN(CC(=O)NCc1ccc(F)cc1)CC(=O)Nc1ccc(Br)cc1F`, the kinetic solubility is 58.9 µg/mL (≈ 134 µM).
The figure for `CCC(C(=O)Nc1cc(C)cc(C)n1)c1ccccc1` (centres undefined) is 39.3 µg/mL (≈ 146 µM).
`CC(C)N(Cc1ccccc1)S(=O)(=O)c1ccc(F)cc1` came in with a solubility (kinetic) of 12 µg/mL (≈ 39 µM).
The figure for `COc1ccc(OC)c(S(=O)(=O)N2CCN(C)CC2c2ccccc2)c1` (centres undefined) is greater than 56.5 µg/mL; for `O=C(OCC(=O)N1CCCCCC1)c1cccnc1Cl` it is greater than 44.5 µg/mL.
The result for `CCCC(=O)O/N=C(\c1ccccc1)c1ccncc1` reads 38.4 µg/mL (≈ 143 µM); that for `CCC(=O)Nc1ccccc1-c1nc2ccccc2[nH]c1=O`, greater than 44 µg/mL.
In turn, `O=C(COC(=O)c1cccs1)Nc1ccc(F)c(F)c1` registered a kinetic solubility of 24.9 µg/mL (≈ 83.8 µM).
The result for `CC(C)n1cc(C(N)=S)c(=O)n(Cc2ccccc2)c1=O` reads 9.1 µg/mL (≈ 30 µM).
Turning to `COc1ccc(S(=O)(=O)N(Cc2ccccc2)c2ccccc2C(=O)O)cc1`, the kinetic solubility came to 53.7 µg/mL (≈ 135 µM).
For `Cc1csc(N)n1`, the kinetic solubility was 10.8 µg/mL (≈ 94.6 µM). Against the preceding compound, the solubility kinetic is about 5-fold lower.
The figure for `O=C(NCc1csc(-c2cccs2)n1)Nc1cccc(Cl)c1` is 0.3 µg/mL (≈ 0.857 µM); for `O=C(COC(=O)CCC(=O)c1ccc(F)cc1)NCc1ccccc1Cl` it is greater than 56.7 µg/mL.
In turn, `CCN(CC)c1ccc(CNCCc2ccc(F)cc2)cc1.Cl` registered a kinetic solubility greater than 50.5 µg/mL.
As for `O=C(OCc1cccc(F)c1)c1ccc2c(=O)n3c(nc2c1)CCC3`, the kinetic solubility came out at 18.5 µg/mL (≈ 54.7 µM).
With `CSc1nc2ccccc2c(=O)n1C1CCOC(C)(C)C1` (centres undefined), the solubility (kinetic) turned out to be 28.4 µg/mL (≈ 93.3 µM). This solubility kinetic is about 1.5-fold higher than that of the compound before.
Turning to `O=C(CN1C(=O)C(=O)N(CCC2=CCCCC2)C1=O)c1c[nH]c2ccccc12`, the solubility (kinetic) came out at 3.2 µg/mL (≈ 8.43 µM).
The figure for `CC1(C)OC(=O)C(=NNc2ccc(C(=O)O)cc2)C(=O)O1` is greater than 43.8 µg/mL; for `CCC(CC)C(=O)c1c[nH]c(C(=O)OC)c1` it is greater than 33.5 µg/mL; for `O=C(NCCOc1ccccc1F)C1CC(=O)N(Cc2ccccc2)C1` (centres undefined) it is greater than 53.5 µg/mL.
In turn, `N#Cc1ccc(C(=O)NCC2CCCCC2)cc1` gave a solubility (kinetic) of 19.9 µg/mL (≈ 82.1 µM).
The figure for `COc1ccc(NC(C)=O)cc1S(=O)(=O)N1CC=C(c2ccccc2)CC1` is 2.6 µg/mL (≈ 6.73 µM); for `O=C(NCCCN1CCCC1)Nc1ccccc1[N+](=O)[O-]` it is greater than 43.9 µg/mL; for `O=C(CNC(=O)c1ccc(Cl)cc1Cl)OC1CCCCC1=O` (centres undefined) it is 39.4 µg/mL (≈ 114 µM).
The compound `CC1=NOC(=O)/C1=C/c1ccc2c(c1)OCO2` had a kinetic solubility of 25.1 µg/mL (≈ 109 µM).
The result for `CC(N=C1NC(C)(C)Cc2ccccc21)C(=O)O` (centres undefined) reads 33.2 µg/mL (≈ 135 µM); that for `CCOC(=O)C1CCN(c2ncnc3cc(OC)c(OC)cc23)CC1`, 51.3 µg/mL (≈ 149 µM).
The compound `O=C(Cn1cncn1)N/N=C/c1ccccc1Cl` gave a kinetic solubility greater than 39.6 µg/mL.
The result for `CCc1nc(C)cc2c1sc1ccccc12.Cl` reads 1 µg/mL.
On to `CC(C)Oc1cccc(C2NC(=O)c3ccccc3O2)c1` (centres undefined), for which the solubility (kinetic) was determined as 6.7 µg/mL (≈ 23.6 µM).
The figure for `COc1ccc(N=C2NC(=O)/C(=C/C=C/c3ccccc3)S2)cc1` is less than 0.4 µg/mL.
The result for `CC(=O)O.CC(C)CC1NC(C(=O)O)Cc2c1[nH]c1ccccc21` (centres undefined) reads 48.4 µg/mL.
The compound `CC(C)CCn1c(N2CCCC2)nc2c1c(=O)n(C)c(=O)n2C` gave a kinetic solubility of 46.6 µg/mL (≈ 146 µM).
The result for `COCCNC(=S)N1CCN(C/C=C/c2ccccc2)CC1` reads greater than 47.9 µg/mL; that for `Cc1cccc(NC(=O)C(=O)NCCCN2CCOCC2)c1`, 41.9 µg/mL (≈ 137 µM).
The figure for `O=C(COc1cccnc1[N+](=O)[O-])Nc1cc(Cl)ccc1Cl` is 2.9 µg/mL (≈ 8.48 µM); for `Cc1ccc(-n2c(C)c(C)c3c(NCCO)ncnc32)cc1` it is greater than 44.5 µg/mL.
With `COc1ccc(S(=O)(=O)NCc2csc(C)n2)cc1OC`, the kinetic solubility is greater than 49.3 µg/mL.
In turn, `O=C(CSc1nnc(-c2ccco2)o1)Nc1ccccc1Cl` came in with a kinetic solubility greater than 50.4 µg/mL.
The figure for `Cc1cc(C)c2c(-c3ccc(F)cc3)c(C#N)c(=O)n(C)c2n1` is 0.6 µg/mL (≈ 1.95 µM); for `CCc1nc2oc3ccccc3c(=O)c2cc1C(=O)OC` it is 4.2 µg/mL (≈ 14.8 µM).
The result for `Cc1ccc(NC(=O)CN2CCN(C(=O)c3ccco3)CC2)cc1` reads 47.8 µg/mL (≈ 146 µM); that for `CCC1CCCCN1CC(=O)c1c(C)[nH]c2ccc(OC)cc12` (centres undefined), 35 µg/mL (≈ 111 µM); that for `O=C(COC(=O)c1ccc([N+](=O)[O-])o1)Nc1ccc(N2CCOCC2)cc1`, 50.6 µg/mL (≈ 135 µM).
The figure for `NC(=O)CCS(=O)(=O)c1ccc(Cl)cc1` is greater than 37.2 µg/mL; for `COC(=O)CCC(=O)c1ccn(S(=O)(=O)c2ccccc2)c1` it is 44.6 µg/mL (≈ 139 µM); for `COc1ccc(C(CNC(=O)c2cc(C)on2)N(C)C)cc1` (centres undefined) it is 45.3 µg/mL (≈ 149 µM).
Turning to `Cc1nc2ccccc2c2oc(C(=O)N3CCC(C)CC3)cc12`, the solubility (kinetic) was greater than 46.3 µg/mL.
The figure for `Cc1cc(C)cc(NCc2ccncc2)c1` is 24.8 µg/mL (≈ 117 µM); for `Nc1cc(Cl)ccc1C(=O)OCC(=O)N1CCOCC1` it is greater than 44.8 µg/mL.
`CC1(C)C2CCC(C2)C1(C)NC(=O)CN1CCCC1.Cl` (centres undefined) gave a kinetic solubility greater than 45.1 µg/mL.
Compound `Clc1ccc(CN2CCSCC2)cc1Cl` registered a solubility (kinetic) of 2.6 µg/mL (≈ 9.92 µM).
The compound `O=C(c1ccc(Sc2ccccc2)c([N+](=O)[O-])c1)N1CCOCC1` had a kinetic solubility of 49.9 µg/mL (≈ 145 µM).
For the compound `Cc1ccccc1CNCCCSc1ncccn1.Cl`, the solubility (kinetic) was determined as 35.2 µg/mL.
The figure for `O=C1CN(C(=O)COc2ccc(F)cc2Cl)c2ccccc2N1` is greater than 50.2 µg/mL.
With `O=C(Cc1csc(NC(=O)c2ccc(F)cc2)n1)NO`, the kinetic solubility is greater than 44.3 µg/mL.
The result for `COC(=O)[C@@H]1CC(O)CN1C(=O)C12CC3CC(CC(C3)C1)C2` (some centres undefined) reads greater than 46.1 µg/mL; that for `N#Cc1c(-c2ccncc2)c2c([nH]c1=O)-c1ccccc1OC2`, 14.9 µg/mL (≈ 49.5 µM).
The figure for `CC1CCCCC1NC(=O)COC(=O)c1cc(=O)[nH]c2ccccc12` (centres undefined) is 6.8 µg/mL (≈ 19.9 µM); for `COc1ccc(OC)c(NC(=O)CCN2CCN(C)CC2)c1.Cl` it is 44.2 µg/mL.
The figure for `Cc1cccc(C(=O)OCC(=O)N2CCCC2=O)c1O` is greater than 41.6 µg/mL.
For the compound `CC(c1ccccc1)N1CCc2[nH]c(=S)[nH]c(=O)c2C1` (centres undefined), the kinetic solubility is 19.9 µg/mL (≈ 69.2 µM).
`O=C(Cn1c(=O)[nH]c2ccccc2c1=O)Nc1cccnc1` registered a solubility (kinetic) greater than 44.4 µg/mL.
The figure for `O=C(CNC(=O)c1ccc(=O)[nH]c1)Nc1ccc(F)c(F)c1` is greater than 46.1 µg/mL.
The figure for `Cc1cccc(NC(=O)CSc2nc3ccccc3c(=O)n2C)c1` is 0.5 µg/mL (≈ 1.47 µM); for `O=C(Nc1cccc(Cl)c1)c1cc(-c2ccco2)on1` it is 0.8 µg/mL (≈ 2.77 µM); for `O=C(NC1CC1)C1CC(=O)N(c2ccc(F)cc2)C1` (centres undefined) it is 37.6 µg/mL (≈ 143 µM).
Regarding `Cc1c(O)ccc(C(=O)CN2CCN(c3ccccc3F)CC2)c1O`, the kinetic solubility came out at 13.7 µg/mL (≈ 39.8 µM). Against the preceding compound, the solubility kinetic is about 2.7-fold lower.
On to `COCCNC(=O)[C@@H]1CSC2c3ccccc3C(=O)N21` (some centres undefined), for which the solubility (kinetic) was greater than 43.9 µg/mL.
Turning to `CCS(=O)(=O)Nc1cc2c3c(c1)CCC(=O)N3CCC2`, the kinetic solubility is greater than 44.2 µg/mL.
The figure for `Cc1ccc(/C=N/NC(=O)c2cccnc2)o1` is greater than 34.4 µg/mL; for `CSc1ccc(/C=N/S(=O)(=O)c2ccccc2)cc1` it is greater than 43.7 µg/mL.
The result for `O=C(NN=Cc1cc(Br)c(O)c(Br)c1)c1ccccc1NS(=O)(=O)c1cccs1` reads greater than 83.9 µg/mL; that for `O=C(NC1CCCC1)C1CC(O)CN1C(=O)Nc1ccccc1` (centres undefined), greater than 47.6 µg/mL.
The result for `O=C(Cc1cccc(C(F)(F)F)c1)N1CCCC1` reads greater than 38.6 µg/mL; that for `COC(=O)c1cc(S(=O)(=O)N2CCCC2)c(Cl)cc1Cl`, 41.8 µg/mL (≈ 124 µM).
For `C=CCn1c(=O)c2ccccc2n2c(SCC(=O)O)nnc12`, the solubility (kinetic) is greater than 47.4 µg/mL.
`CCN(C(=O)c1cc(Cl)ccc1Cl)C1CCS(=O)(=O)C1` (centres undefined) gave a kinetic solubility greater than 50.4 µg/mL.
The result for `O=C(NCCCNC(=O)c1ccc(Cl)cc1Cl)c1ccccn1` reads 51.8 µg/mL (≈ 147 µM).
The compound `Cc1cc(=O)oc2cc(OCC(=O)N3CCCC3)ccc12` came in with a solubility (kinetic) greater than 43.1 µg/mL.
The figure for `NC(=O)C1Cc2ccccc2CN1S(=O)(=O)c1cccs1` (centres undefined) is greater than 48.4 µg/mL; for `Clc1nc(-c2ccccc2)ncc1Oc1ccccc1` it is less than 0.3 µg/mL; for `c1ccc(-c2nccc3ccccc23)cc1` it is 7.3 µg/mL (≈ 35.6 µM).
The result for `C=CCN1C(=O)c2ccc(C(=O)N3CCC(C(N)=O)CC3)cc2C1=O` reads 47.9 µg/mL (≈ 140 µM).
The figure for `COc1ccc(/C=C/C(=O)Nc2c(C(=O)O)[nH]c3ccccc23)cc1OC` is greater than 55 µg/mL; for `FC(F)(F)c1ccc(NC2=NCCCS2)cc1` it is 15.6 µg/mL (≈ 59.9 µM).
In turn, `NC(=O)COC(=O)c1c2c(nc3ccccc13)CCCCC2` came in with a solubility (kinetic) greater than 44.8 µg/mL.
For the compound `CC1(c2ccc(NC(=O)c3ccccc3F)cc2)CC1(Cl)Cl` (centres undefined), the kinetic solubility was less than 0.7 µg/mL.
The result for `Cc1ccc(NC(=O)c2ccc(Cl)cc2Cl)cc1O` reads 12 µg/mL (≈ 40.5 µM).
Turning to `O=C(NCCN1CCOCC1)c1c(O)nc2ccccn2c1=O`, the kinetic solubility is greater than 47.7 µg/mL.
The result for `CCO/C([O-])=N/c1c[n+](N2CCOCC2)no1` reads greater than 36.3 µg/mL.
The result for `CN(C(=O)COC(=O)CCC(=O)c1ccc(F)cc1)C1CCCCC1` reads greater than 52.4 µg/mL; that for `Cc1nc2ccccc2n1Cc1ccc(Br)cc1`, 37.8 µg/mL (≈ 126 µM).
With `CS(=O)(=O)N1CCN(c2ccc([N+](=O)[O-])c3cccnc23)CC1`, the kinetic solubility worked out at 9.7 µg/mL (≈ 28.8 µM).
The figure for `CCOC(=O)c1c(C)oc2c1c(C=NCC1CCCO1)c(O)c1ccccc12` (centres undefined) is less than 0.8 µg/mL.
